Assay results as given in patent publication US20220257595A1, “MACITENTAN FOR USE IN TREATING PORTOPULMONARY HYPERTENSION” (ACTELION PHARMACEUTICALS LTD, priority 2019, published 2022).

Experiments:
[1] = tested on: patients with PoPH; test: PORTICO: Borg dyspnea index after 6MWT; assay type: in vivo, human; details: DB period
Method: (iv) 6-minute walk test, including Borg dyspnea index: The 6MWT was performed at Screening, Baseline (Visit 2/Randomization), and then every Visit until EOT-DB or EOT-OL, whichever came last. It is a non-encouraged test that measures the distance walked by the patient in six minutes. It is important that for each individual patient the 6MWT was conducted under the same conditions throughout the study (e.g., same location, same tester, same time of day, with or without nasal oxygen therapy and where applicable with same flow rate as Baseline). The Borg dyspnea index was evaluated after each 6MWT. It rates dyspnea on a scale from 0 to 10.
Double-blind treatment period: Changes from baseline to Week 12 in HVPG/HVPG (central review) and Borg dyspnea index (related to the DB treatment period) are summarized by treatment group in the FAS using descriptive statistics.

[2] = tested on: patients with PoPH; test: PORTICO: hepatic venous pressure gradient by hepatic vein catheterization; assay type: in vivo, human; details: macitentan group n=15, no TIPS
Method: (ii) Hemodynamic measurements—hepatic vein catheterization: HVPG, the difference between portal pressure and hepatic pressure, was measured by HVC at Baseline (Visit 1/Screening) and Week 12, or at permanent discontinuation of DB study treatment if prior to Week 12 (at the investigator's discretion). Where possible, HVPG was measured at the same time as RHC. The second measurement during the study was required to be performed within 1 week prior to EOT-DB if it was not possible to perform the HVC on the same day as the RHC. HVPG measurements were performed after at least 4 hours of fasting, at rest, in the supine position, under local anesthesia and mild sedation. A catheter introducer was placed into the right jugular vein (or femoral) using the Seldinger technique. It was used to advance a balloon-tipped catheter into the main right hepatic vein for repeated measurements of wedged (occluded) and free hepatic venous pressures. Intravascular pressures were measured using highly sensitive pressure transducers, calibrated before each measurement. HVPG was calculated as the difference between wedged and free hepatic venous pressures. […] The mean of these two measurements was considered final. […]

[3] = tested on: patients with PoPH; test: PORTICO safety: hematology (platelets, lymphocytes, neutrophils); assay type: in vivo
Description: For the evaluation of treatment-emergent safety endpoints in the DB phase, the observation period for each individual subject started at the time of the first administration of macitentan or placebo and ended with the start of OL treatment or 30 days after DB treatment discontinuation (whichever occurred first). The safety variables listed below apply to the DB treatment-emergent period and the macitentan treatment-emergent period. The DB treatment-emergent period was defined as the period from the DB treatment start date up to the EOT-DB+30 days or to the EOT-DB for patients entering OL. The macitentan treatment-emergent period was defined as the period from the first intake of macitentan up to end of macitentan treatment (EOMT)+30 days. EOMT was defined as EOT-DB (for patient who received macitentan only in the DB period) or EOT-OL when applicable. For patients entering OLE, the EOMT is EOT-OL. • Treatment-emergent AEs • Treatment-emergent deaths • Treatment-emergent serious adverse events (SAEs) • AEs leading to premature discontinuation of study treatment • Occurrence of post-baseline LFT (ALT and/or AST) abnormalities, classified as: • ≥3×ULN; • ≥5×ULN; • ≥8×ULN; • ≥3×ULN and <5×ULN; • […] and <8×ULN. • Occurrence of post-baseline ALT and/or AST abnormality 3×ULN and concomitant (i.e., at the same time) total bilirubin ≥2×ULN • Occurrence of post-baseline ALT and/or AST abnormality ≥3×ULN and concomitant (i.e., at the same time) total bilirubin ≥2×ULN and increased as compared to baseline • Occurrence of hemoglobin abnormalities, classified as: • ≤80 g/L, • >80 and ≤100 g/L, • decrease from baseline ≥20 g/L and <50 g/L, • decrease from baseline ≥50 g/L, • <100 g/L and concurrent (i.e., at the same time) decrease from baseline ≥20 g/L. • Other treatment-emergent marked laboratory abnormalities • Change from baseline/macitentan baseline to EOT-DB/EOMT in vital signs • Change from baseline/macitentan baseline to EOT-DB/EOMT in laboratory variables • Change from baseline/macitentan baseline to EOT-DB/EOMT in Child-Pugh classification • Change from baseline/macitentan baseline to EOT-DB/EOMT in MELD score

[4] = LL at baseline, DB phase, Safety set, 10 mg
[5] = LL at baseline, macitentan DB + OL phase, Macitentan treated set
[6] = Normal at baseline, DB phase, Safety set, 10 mg
[7] = Normal at baseline, macitentan DB + OL phase, Macitentan treated set

CCCNS(=O)(=O)Nc1ncnc(OCCOc2ncc(Br)cn2)c1-c1ccc(Br)cc1 [macitentan, N-[5-(4-Bromophenyl)-6-[2-[(5-bromo-2-pyrimidinyl)oxy]ethoxy]-4-pyrimidinyl]-N′-propylsulfamide]
Change in Borg dyspnea score over time [1]: no change
HVPG (central review) mean change from baseline at Week 12 [2]: −0.5 mmHg
Median decrease in lymphocyte count, baseline to Week 12 ([3]; DB phase, macitentan group): 2.8e+08 L⁻¹
Median decrease in neutrophil count, baseline to Week 12 ([3]; DB phase, macitentan group): 7.2e+08 L⁻¹
Median decrease in platelets at Week 12 ([3]; DB phase, macitentan group): 1.1e+10 L⁻¹
Median lymphocyte count at Week 12 ([3]; DB phase, macitentan group): 1.04e+09 L⁻¹
Median neutrophil count at Week 12 ([3]; DB phase, macitentan group): 2.25e+09 L⁻¹
Patients with neutrophil decreases from normal at baseline to <1.5×10^9/L ([3]; DB phase, macitentan group): 6/41
Patients with normal platelets at baseline decreasing to <75×10^9/L ([3]; DB phase, macitentan group): 2/29
Leukocytes (10^9/L) <2.0 (LLL), worst treatment-emergent marked abnormality [3, 4]: 2/5
Lymphocytes (10^9/L) <0.5 (LLL), worst treatment-emergent marked abnormality [3, 4]: 3/5
Neutrophils (10^9/L) <1.0 (LLL), worst treatment-emergent marked abnormality [3, 4]: 0/2
Leukocytes (10^9/L) <2.0 (LLL), worst treatment-emergent marked abnormality [3, 5]: 3/7
Lymphocytes (10^9/L) <0.5 (LLL), worst treatment-emergent marked abnormality [3, 5]: 6/10
Neutrophils (10^9/L) <1.0 (LLL), worst treatment-emergent marked abnormality [3, 5]: 0/2
Leukocytes (10^9/L) <2.0 (LLL), worst treatment-emergent marked abnormality [3, 6]: 0/38
Leukocytes (10^9/L) <3.0 −≥ 2.0 (LL), worst treatment-emergent marked abnormality [3, 6]: 5/38
Lymphocytes (10^9/L) <0.5 (LLL), worst treatment-emergent marked abnormality [3, 6]: 1/38
Lymphocytes (10^9/L) <0.8 −≥ 0.5 (LL), worst treatment-emergent marked abnormality [3, 6]: 8/38
Neutrophils (10^9/L) <1.0 (LLL), worst treatment-emergent marked abnormality [3, 6]: 2/41
Neutrophils (10^9/L) <1.5 −≥ 1.0 (LL), worst treatment-emergent marked abnormality [3, 6]: 4/41
Leukocytes (10^9/L) <2.0 (LLL), worst treatment-emergent marked abnormality [3, 7]: 4/76
Leukocytes (10^9/L) <3.0 −≥ 2.0 (LL), worst treatment-emergent marked abnormality [3, 7]: 9/76
Lymphocytes (10^9/L) <0.5 (LLL), worst treatment-emergent marked abnormality [3, 7]: 2/72
Lymphocytes (10^9/L) <0.8 −≥ 0.5 (LL), worst treatment-emergent marked abnormality [3, 7]: 19/72
Neutrophils (10^9/L) <1.0 (LLL), worst treatment-emergent marked abnormality [3, 7]: 5/81
Neutrophils (10^9/L) <1.5 −≥ 1.0 (LL), worst treatment-emergent marked abnormality [3, 7]: 12/81
Patients with shifts in lymphocyte counts from normal at baseline to <0.8×10^9/L ([3]; any time during DB phase, macitentan group): 9/38
Median decrease from baseline in platelet counts ([3]; combined DB+OL phase): no median decrease
Median decrease in lymphocyte count, baseline to Week 24 ([3]; macitentan DB+OL phase): 2.4e+08 L⁻¹
Median decrease in neutrophil count, baseline to Week 24 ([3]; macitentan DB+OL phase): 3.3e+08 L⁻¹
Median lymphocyte count at Week 24 ([3]; macitentan DB+OL phase): 1.05e+09 L⁻¹
Median neutrophil count at Week 24 ([3]; macitentan DB+OL phase): 2.4e+09 L⁻¹
Patients with platelet decreases from normal at macitentan baseline to <75×10^9/L ([3]; macitentan DB+OL phase): 7 patients
Patients with shifts in lymphocyte counts from normal at baseline to <0.8×10^9/L ([3]; macitentan DB+OL phase): 21/72
Patients with shifts in neutrophil counts from normal at baseline to notably low ([3]; macitentan DB+OL phase): 17/81
